Data on 2 molecules can be found in patent US7998991B2, “Neurotherapeutic treatment for sexual dysfunction” (Revaax Pharmaceuticals, LLC, priority 2001, dated 2011).

The test system of one data set is nucleus accumbens. In words: Microdialysis of extracellular neurotransmitter levels after IP CLAV. Format: in vivo, Sprague Dawley rats. The method, then: To test this hypothesis, extracellular neurotransmitter levels in the area of the nucleus accumbens were assessed with microdialysis following CLAV treatment. The accumbens is part of the limbic forebrain best now for its association with the pathophysiology of schizophrenia and drug addiction but also thought to be involved in sensitization to early life trauma leading to the anxiety disorder PTSD or post traumatic stress disorder ([…] and Bremner 1999). Ten male, Sprague Dawley rats were anesthetized with sodium pentobarbital (50 mg/kg) and implanted with a unilateral microdialysis guide cannula aimed at the nucleus accumbens. Two days after recovery from surgery a microdialysis probe (2 mm) was lowered to the area and connected to an infusion pump through Tygon tubing. The dialysate was artificial CSF at pH 7.4 delivered at a flow rate of 2 μl/min. The first 120 min of dialysate will be discarded. Thereafter, samples were collected at 30 min intervals prior to and following IP CLAV treatment (10 μg/kg). Samples were collected into microfuge tubes containing 5 μl of 0.16 N perchloric acid to stabilize catecholamines. At the end of the study, animals were sacrificed and the brains prepared for histology to verify the site of the microdialysis probe.

Data set [1] relates to cotton-top tamarin (Saguinus oedipus). In words: Novel object test for anxiolytic activity in cotton-top tamarins. Particulars: oral 1 mg/kg, three doses a day for two days. Format: in vivo. As for the experimental part:
Eight male/female pairs of tamarins with long standing pair bonds were tested following oral treatments of CLAV and vehicle (VEH) control. There were no offspring since males were vasectomized. Both members of a pair received the same treatments at the same times. Each animal served as its own control being tested both with CLAV or VEH one week apart. The treatment schedule was counter-balanced. CLAV was dissolved in water and dispensed onto a small cookie in a volume of 100 μl. A single CLAV cookie was given to each member of a pair at an approximate dose of 1 mg/kg body weight. Animals were given three CLAV cookies each day for two consecutive days. The 1st cookie was given at 8:00 AM prior to the morning feeding, the 2nd at 11:00 AM prior to the noon feeding and the 3rd at 2:00 PM prior to the late afternoon snack. All animals were scored for anti-anxiety activity 60 min after the 3rd treatment on the second day.
Two observers blind to the treatment independently scored behavioral activity. To elicit anxious/stressful behavior a novel object was placed into the home cage. A different novel object was used for each test session and the object presentation was counter-balanced. Following the presentation of the novel object animals were scored for a duration of 15 min for: 1) latency to approach and latency to touch the object, 2) time spent in contact or proximity with the object, 3) face and head movement (frowns, head shakes and head cocks that reflect tension), 4) scratching (a validated measure of anxiety in macaques), 5) piloerection (autonomic stress response), and 6) visual scanning (nervous vigilance).

In the next data set the test system is monoamine transporters. In words: Binding of CLAV to monoamine transporters.
The target in another data set is T1, monoamine oxidase A (Homo sapiens, UniProt P21397).
T1 sequence (P21397 1-527): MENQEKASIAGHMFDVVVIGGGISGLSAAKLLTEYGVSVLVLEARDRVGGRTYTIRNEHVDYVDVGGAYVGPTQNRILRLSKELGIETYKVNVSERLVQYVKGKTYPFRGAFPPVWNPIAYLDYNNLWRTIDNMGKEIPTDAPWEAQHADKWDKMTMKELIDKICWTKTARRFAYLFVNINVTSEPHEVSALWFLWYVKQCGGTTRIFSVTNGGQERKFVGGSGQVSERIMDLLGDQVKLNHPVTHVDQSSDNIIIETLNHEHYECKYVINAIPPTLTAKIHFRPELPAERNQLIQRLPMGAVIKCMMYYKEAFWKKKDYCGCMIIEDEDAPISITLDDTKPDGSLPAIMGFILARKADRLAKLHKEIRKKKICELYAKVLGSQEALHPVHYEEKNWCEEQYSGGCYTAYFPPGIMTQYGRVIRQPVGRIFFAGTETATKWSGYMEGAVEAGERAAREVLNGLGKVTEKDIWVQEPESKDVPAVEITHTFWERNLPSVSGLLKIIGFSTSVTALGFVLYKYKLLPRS
Put plainly: Binding of CLAV to monoamine oxidase A.

Data set [2] concerns cotton-top tamarin (Saguinus oedipus). Put plainly: Scoring of erections, mounts and female solicitations in cotton-top tamarins. It counts as in vivo. Particulars: oral 1 mg/kg.
Data set [3] deals with well known signaling receptors or transporters. Put plainly: Binding of CLAV to well known signaling receptors or transporters.
Data set [4] is described as follows: Pharmacokinetic assessment of CLAV run by IVEDCO. Particulars: from plasma 2.5 μg/ml and CSF/plasma ratio 0.25. As for the experimental part: This treatment regimen of three doses each day for two consecutive days was chosen to acclimate the animals to the treatment procedure (day 1) and to achieve steady-state blood concentration before testing (day 2). A pharmacokinetic assessment of CLAV was run by IVEDCO (Irving Tex.) which estimated an oral dose of 1 mg/kg every three hrs would produce steady-state levels yielding an average plasma concentration of 2.5 μg/ml at the time of testing. Since the CSF/plasma ratio is 0.25 the estimated concentration in the brain would be around 0.3 μM. Given the rate of clearance of CLAV, treatments from day 1 should not have contributed to blood levels of drug on day 2.

Data set [5] concerns prefrontal cortex and nucleus accumbens. Particulars: Cartmell et al., 2000b; Hertel et al. 1997; cited from earlier work.

As to `O=C(O)[C@H]1/C(=C/CO)O[C@@H]2CC(=O)N21` [CLAV, clavulanic acid], the DOPAC levels entry in the data set with nucleus accumbens (IP 10 μg/kg, AC-1 to AC-5) is given as “only rose in two cases”. The “changes in dopamine and serotonin neurotransmission, probe outside the nucleus accumbens” value in the data set on nucleus accumbens (IP 10 μg/kg, lateral ventricle, bed nucleus of stria terminalis, head of the caudate, ventrolateral thalamus) is listed as “little if any changes”. In addition, in the data set with nucleus accumbens (animal AC-1, IP 10 μg/kg), the “dopamine metabolite 3,4-dihydroxyphenylacetic acid (DOPAC) over time” value is “robust increase”, the “dopamine metabolite homovanillic acid (HVA) over time” value was “robust increase”, the dopamine over time entry is “modest decrease” and the “extracellular levels of serotonin over time” value was “increase”. For the same molecule, the “serotonin metabolite 5-hydroxyindoleacetic acid (HIAA) over time” value in the data set with nucleus accumbens (animal AC-1, IP 10 μg/kg) is “robust increase”. For the same molecule, in data set [1], the “latency to approach the novel object, CLAV vs VEH” value is given as “no significant difference”; the “latency to touch the novel object, CLAV vs VEH” value is listed as “no significant difference”; the “time spent in proximity to the object, CLAV vs VEH” value was “Neither was there any difference”. Further, in data set [1] (scored 15 min, 60 min after 3rd treatment on day 2, p<0.05 vs VEH), the “combined measures of anxious/nervous behaviors (3, 4, 5 & 6)” value is on record as 12.7+4.8. For the same molecule, the “binding to monoamine transporters” value in the data set on monoamine transporters is recorded as “Neither the monoamine transporters nor the degradative enzyme monoamine oxidase A show binding”. Further, the “binding to monoamine oxidase A” value on monoamine oxidase A was “Neither the monoamine transporters nor the degradative enzyme monoamine oxidase A show binding”. The “females showing solicitation behaviors” value in data set [2] (eight females, three doses a day for two days) is reported as “Two of the eight”. In addition, in data set [2] (eight males, three doses a day for two days), the “males showing at least one erection in 15 min” value is on record as “All eight”. The “mean erections in 15 min” value in data set [2] (males, three doses a day for two days) came out at 2.25 erections in 15 min. Besides, the rate of erections in data set [2] (males, p<0.02 vs VEH) is listed as 9.0 erections per hour. For the same molecule, the “mounting behavior, CLAV vs VEH” value in data set [2] (three doses a day for two days) is given as “no significant difference”. The “binding to well known signaling receptors or transporters” value in data set [3] is given as “does not appear to bind”. Also, the “estimated concentration in the brain” value in data set [4] is “around 0.3 μM”.

Consider `Cc1nc2n(c(=O)c1CCN1CCC(c3noc4cc(F)ccc34)CC1)CCCC2` [risperidone], for which, in data set [5], the “dopamine and serotonin neurotransmission in the prefrontal cortex and nucleus accumbens” value is on record as “increase”.
